Measured values taken from patent US7122666B2, “Heteroaryl-substituted pyrrole derivatives, their preparation and their therapeutic uses” (Sankyo Company, Limited, priority 1999, dated 2006).

Columns and labels:
[1] = test system: TNFα production; assay: Inhibition of the production of TNFα in vivo (Test Examples 2 and 2′); conditions: Table 9′; Balb/c mice, oral administration 30 minutes before intravenous lipopolysaccharide, plasma TNFα 1 hour after LPS
Experimental: This test was performed according to the method of Ochalski, et al. [S. J. Ochalski, D. A. Hartman, M. T. Belfast, T. L. Walter, K. B. Glaser and R. P. Carlson; Inhibition of endotoxin-induced hypothermia and serum TNF-α levels in CD-1 mice by various pharmacological agents: Agents Actions 39, C52–C54 (1993)].
The production of TNFα was induced in mice by the intravenous injection of lipopolysaccharide (E. coli O26: B6 origin, Difco) which was prepared to a concentration of 0.045 mg/ml using physiological saline. The saline preparation of lipopolysaccharide was administered at the rate of 10 ml/l kg of body weight into the caudal vein of Balb/c mice (males, age 5–7 weeks, body weight: approx. 22 g, Japan Charles River) which had been fasted overnight starting on the day before the experiment. One hour after administration, the mice were laparotomized under ether anaesthesia and blood was collected from the abdominal vena cava. Blood collection was performed using a 1 ml volume disposable syringe equipped with a 23G needle which had been moistened with heparin on the inside wall. Following blood collection, the blood was immediately transferred to a 1.5 ml volume Eppendorf tube and centrifuged at 4° C. and 14,000 rpm to separate the plasma. This plasma was then stored at −20° C. until measurement of TNFα. The measurement of the amount of TNFα was performed with a commercially available enzyme immunoassay (ELISA) kit (Mouse TNFα ELISA KIT, Genzyme).
To determine the inhibitory activity of the test compounds, each test compound was suspended in a 0.5% tragacanth solution and then administered orally to the Balb/c mice at the rate of 10 ml/1 kg of body weight 30 minutes before injection of lipopolysaccharide. The level of TNFα production was then determined as described above. In the control group, 0.5% tragacanth solution was administered at the rate of 10 ml/1 kg of body weight to the test mice instead of the solutions of the test compounds. A minimum of 3 dose levels of the test compound was administered to groups of 5 test mice for each test compound. The inhibitory rate relative to the control group was calculated for each dose level. From the inhibitory rates and the dosages, ID50 values were calculated by the least squares method.
The production of TNFα was induced in mice by the intravenous injection of lipopolysaccharide (E. coli O26: B6 origin, Difco) which was prepared to a concentration of 0.045 mg/ml using physiological saline. […]
To determine the inhibitory activity of the test compounds, each test compound was suspended in a 0.5% tragacanth solution and then administered orally to the Balb/c mice at the rate of 10 ml/1 kg of body weight 30 minutes before injection of lipopolysaccharide. The level of TNFα production was then determined as described above. […]

[2] = test system: IL-1β production in human whole blood; assay: Inhibition of the production of IL-1β in vitro in human whole blood (Test Examples 1 and 1′); format: cell-based; conditions: Table 8′, lipopolysaccharide 10 μg/ml, 6 hours at 37° C., plasma IL-1β by ELISA, least squares, read-out: Inhibitory Effect on IL-1β Production (in vitro) IC50
Experimental: Inhibition of the Production of the Cytokines IL-1β and TNFα in Vitro in Human Whole Blood
This test was performed according to the method of Hartman, et al. [D. A. Hartman, S. J. Ochalski and R. P. Carlson; The effects of anti-inflammatory and antiallergic drugs on cytokine release after stimulation of human whole blood by lipopolysaccharide and zymosan A: Inflamm. Res., 44, 269 (1995)].
(§1) Peripheral blood samples were collected in the presence of heparin from healthy adult volunteers. 1000 μl of whole blood were added to an Eppendorf tube to which 2 μl of a dimethyl sulfoxide solution of the test compound had been added in advance, after which 10 μl of lipopolysaccharide (E. coli 026: B6 origin, Difco) were added as a stimulant (final concentration of said lipopolysaccharide: 10 μg/ml). This was mixed well and then incubated for 6 hours at 37° C. in the presence of 5% CO2. At the end of the incubation, the mixture was cooled to 4° C. to stop the reaction, followed immediately by centrifuging for 5 minutes at 14,000 rpm to separate and collect the supernatant plasma. The IL-1β and TNFα produced and released into the plasma were measured using a commercially available enzyme immunoassay (ELISA) kit [Cayman (IL-1β) and Genzyme (TNFα)]. The procedure was also repeated in the absence of test compound. The inhibitory effect [IC50 (μM)] on the production of IL-1β and TNFα was determined from the amounts of the cytokines produced in the presence and absence of the test compound.
Inhibition of the Production of the Cytokines IL-1β and TNFα In Vitro in Human Whole Blood
as §1, with “O26:” for “026:”, “plasma” for “plasma.”, “kits” for “kit”, “determined by the method of least squares” for “determined”

CC1C[C@H]2C=C(c3c[nH]c(-c4ccc(F)cc4)c3-c3ccncc3)CCN2C1 (stereo partly drawn) [Example 16′, 2-(4-Fluorophenyl)-4-[(8aS)-2-methyl-1,2,3,5,6,8a-hexahydroindolizin-7-yl]-3-(pyridin-4-yl)1H-pyrrole]
Inhibitory Effect on TNFα Production (in vivo) IC50 [1]: 0.71 mg/kg | IC50 [2]: 1.7 nM
